Read-outs that look alike come from different tables or passages of the source.
How the values were obtained:
nuOXPHOS transcripts = type: cell-based, mouse
cytochrome c = type: cell-based, mouse
[1] = tested on: mitochondrial membrane potential; type: cell-based, mouse
mtOXPHOS transcripts = type: cell-based, mouse
reactive oxygen species = type: cell-based, mouse
[2] = tested on: cellular dehydrogenase activity
OXPHOS gene expression = type: cell-based, mouse
[3] = composite Z-score vs DMSO, Conc 20 μM
[4] = composite Z-score vs DMSO wells, Conc 20 μM
[5] = 20 μM, composite Z-score vs DMSO
[6] = Conc 20 μM, normalized score vs mock-treated (DMSO) wells
[7] = composite Z-score vs DMSO, Conc 10.62 μM
[8] = composite Z-score vs mock-treated (DMSO) wells, Conc 20 μM

Molecule CC(C)=CCC/C(C)=C/CC/C(C)=C/CO [farnesol] has a Viability (C2C12 myotubes; [3]) of −1.327, a nucOX (nuOXPHOS transcripts; [3]) of 0.106 and a cyt c (cytochrome c; [3]) of −0.437. The ΔΨm [1, 3] was −0.153, the mitoOX (mtOXPHOS transcripts; [3]) was −0.401 and the ROS (reactive oxygen species; [3]) was 0.550. For the same molecule, the MTT [2, 3] was −1.554 and the GE-HTS (OXPHOS gene expression; [3]) was −0.066.
Molecule CC(C)(OC(=O)c1ccccc1)[C@@H]1Cc2cc3ccc(=O)oc3cc2O1 [felamidin] has a Viability (C2C12 myotubes; [3]) of 0.224, a nucOX (nuOXPHOS transcripts; [3]) of 0.835 and a cyt c (cytochrome c; [3]) of 0.921. It also gave a ΔΨm [1, 3] of 0.600, a mitoOX (mtOXPHOS transcripts; [3]) of 1.050 and an ROS (reactive oxygen species; [3]) of 0.710. For the same molecule, the MTT [2, 3] was −0.475 and the GE-HTS (OXPHOS gene expression; [3]) was 0.966.
Work on CC(NCCC(c1ccccc1)c1ccccc1)c1ccccc1 (stereo not drawn) [fendiline] yielded a Viability (C2C12 myotubes; [4]) of −0.080, a nucOX (nuOXPHOS transcripts; [4]) of −0.896 and a cyt c (cytochrome c) of −0.405. It also gave a cyt c (cytochrome c; [4]) of −0.752, a ΔΨm [1, 4] of −1.174 and a mitoOX (mtOXPHOS transcripts; [4]) of −0.951. It also gave an ROS (reactive oxygen species; [4]) of 0.912, an MTT [2, 4] of −1.007 and a GE-HTS (OXPHOS gene expression; [4]) of −1.005.
O=C(COc1ccc(Cl)cc1)N1CCN(Cc2ccc3c(c2)OCO3)CC1 [fipexide] showed a Viability (C2C12 myotubes) of −0.617, a Viability (C2C12 myotubes; [5]) of 0.721 and a nucOX (nuOXPHOS transcripts) of 0.163. For the same molecule, the nucOX (nuOXPHOS transcripts; [5]) was −0.010, the cyt c (cytochrome c) was 0.573 and the cyt c (cytochrome c; [5]) was −0.071. The ΔΨm [1] was −0.624, the ΔΨm [1, 5] was −0.354 and the mitoOX (mtOXPHOS transcripts) was 0.155. The mitoOX (mtOXPHOS transcripts; [5]) was −0.657, the ROS (reactive oxygen species) was 0.307 and the ROS (reactive oxygen species; [5]) was 0.873. The MTT [2] was −0.924, the MTT [2, 5] was −0.186 and the GE-HTS (OXPHOS gene expression) was 0.169. It also gave a GE-HTS (OXPHOS gene expression; [5]) of −0.241.
For Oc1ccc2c(c1)O[C@H](c1ccc(O)c(O)c1)[C@@H](O)C2 [fisetinidol, reference compound], the “Viability (composite Z-score)” value (C2C12 myotubes; [6]) was −1.412, the “nucOX (composite Z-score)” value (nuOXPHOS transcripts; [6]) was −1.107 and the “cyt c (composite Z-score)” value (cytochrome c; [6]) was 0.234. The “ΔΨm (composite Z-score)” value [1, 6] was −1.528, the “mitoOX (composite Z-score)” value (mtOXPHOS transcripts; [6]) was −0.536 and the “ROS (composite Z-score)” value (reactive oxygen species; [6]) was −0.215. For the same molecule, the “MTT (composite Z-score)” value [2, 6] was −1.804 and the “GE-HTS (composite Z-score)” value (OXPHOS gene expression; [6]) was −0.998.
COc1cc(O)c(C(=O)/C=C/c2ccccc2)c(OC)c1 [flavokawain B] was tested, and the Viability (C2C12 myotubes; [3]) was 0.583, the nucOX (nuOXPHOS transcripts; [3]) was −1.423 and the cyt c (cytochrome c; [3]) was 0.708. The ΔΨm [1, 3] was −0.302, the mitoOX (mtOXPHOS transcripts; [3]) was −1.291 and the ROS (reactive oxygen species; [3]) was 0.292. For the same molecule, the MTT [2, 3] was −0.298 and the GE-HTS (OXPHOS gene expression; [3]) was −1.453.
For O=c1[nH]c(=O)n([C@H]2C[C@H](O)[C@@H](CO)O2)cc1F [floxuridine], the Viability (C2C12 myotubes; [4]) was −0.712, the nucOX (nuOXPHOS transcripts; [4]) was 0.993 and the cyt c (cytochrome c; [4]) was −0.314. For the same molecule, the ΔΨm [1, 4] was −1.275, the mitoOX (mtOXPHOS transcripts; [4]) was 0.539 and the ROS (reactive oxygen species; [4]) was 0.063. It also gave an MTT [2, 4] of −1.643 and a GE-HTS (OXPHOS gene expression; [4]) of 0.909.
In the case of CC(=O)[C@@]1(O)CC[C@H]2[C@@H]3C[C@H](C)C4=CC(=O)C=C[C@]4(C)[C@@]3(F)[C@@H](O)C[C@@]21C [fluorometholone], the Viability (C2C12 myotubes; [7]) is reported as −0.965, the nucOX (nuOXPHOS transcripts; [7]) is reported as 0.038 and the cyt c (cytochrome c; [7]) is reported as −0.324. For the same molecule, the ΔΨm [1, 7] was −0.299, the mitoOX (mtOXPHOS transcripts; [7]) was 1.187 and the ROS (reactive oxygen species; [7]) was 2.141. It also gave an MTT [2, 7] of −1.306 and a GE-HTS (OXPHOS gene expression; [7]) of 0.446.
Fc1ccc(C(c2ccccc2)(c2ccccc2F)n2ccnc2)cc1 (stereo not drawn) [flutrimazole] showed a Viability (C2C12 myotubes; [5]) of 0.858, a nucOX (nuOXPHOS transcripts; [5]) of −0.592 and a cyt c (cytochrome c; [5]) of 0.904. It also gave a ΔΨm [1, 5] of −0.429, a mitoOX (mtOXPHOS transcripts; [5]) of −0.915 and an ROS (reactive oxygen species; [5]) of 0.781. For the same molecule, the MTT [2, 5] was −0.356 and the GE-HTS (OXPHOS gene expression; [5]) was −0.763.
In the case of C[C@]12CCC(=O)C(O)=C1CC[C@@H]1[C@@H]2CC[C@]2(C)C(=O)CC[C@@H]12 [formestane], the Viability (C2C12 myotubes; [3]) is reported as −0.582, the nucOX (nuOXPHOS transcripts; [3]) is reported as 0.050 and the cyt c (cytochrome c; [3]) is reported as −0.115. The ΔΨm [1, 3] was −0.608, the mitoOX (mtOXPHOS transcripts; [3]) was 0.121 and the ROS (reactive oxygen species; [3]) was 1.013. It also gave an MTT [2, 3] of −0.725 and a GE-HTS (OXPHOS gene expression; [3]) of 0.097.
COc1cc2ccc(=O)oc2c(OC)c1OC [fraxidin methyl ether] was tested, and the Viability (C2C12 myotubes; [8]) was −1.325, the nucOX (nuOXPHOS transcripts; [8]) was −0.104 and the cyt c (cytochrome c; [8]) was −0.098. It also gave a ΔΨm [1, 8] of −0.713, a mitoOX (mtOXPHOS transcripts; [8]) of −0.103 and an ROS (reactive oxygen species; [8]) of 0.276. The MTT [2, 8] was −2.013 and the GE-HTS (OXPHOS gene expression; [8]) was −0.124.
C[C@H]1C(=O)CC[C@@H]2[C@]1(C)CC[C@H]1[C@@]2(C)CC[C@@]2(C)[C@@H]3CC(C)(C)CC[C@]3(C)CC[C@]12C [friedelin] gave a Viability (C2C12 myotubes; [3]) of 0.082, a nucOX (nuOXPHOS transcripts; [3]) of −1.150 and a cyt c (cytochrome c; [3]) of 0.614. For the same molecule, the ΔΨm [1, 3] was −0.867, the mitoOX (mtOXPHOS transcripts; [3]) was −0.600 and the ROS (reactive oxygen species; [3]) was 0.449. For the same molecule, the MTT [2, 3] was −1.362 and the GE-HTS (OXPHOS gene expression; [3]) was −1.043.

From patent publication US20090143279A1 (priority 2007, published 2009)
